A short description of series [1]: Physical stability of peptide analogues (Thioflavin T fibrillation). As to conditions: maximum ThT signal normalized between hAMY maximum and buffer background; 40° C., shaking, four days; pH 7 per table title. Type of series: physicochemical. The method in brief:
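Samples are stressed at 40 °C for four days, being shaken at 700 rpm before each 10-min fluorescence reading of 4 μM Thioflavin T. Buffers were pH 4 acetate or pH 7 phosphate. Reported values are smoothed maximum ThT signals as a percentage of the hAMY-to-background range.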

The target in series [2] is hAM1 receptor (Homo sapiens, UniProt O60895+Q16602). The series is described as follows: cAMP assay for in vitro receptor activation, hAM1-R. As to conditions: cAMP assay, hAM1 receptor; read-out: hAM1R EC50. Type of series: cell-based. The procedure, abridged: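 A subcloned monoclonal line stably expressing hAM1 receptor is thawed and plated at 8000 cells/well. The assay buffer is DPBS with 0.05% casein and 0.5 mM IBMX, and receptor activation is followed by cAMP levels.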
Chain of hAM1 receptor (Q16602 23-461): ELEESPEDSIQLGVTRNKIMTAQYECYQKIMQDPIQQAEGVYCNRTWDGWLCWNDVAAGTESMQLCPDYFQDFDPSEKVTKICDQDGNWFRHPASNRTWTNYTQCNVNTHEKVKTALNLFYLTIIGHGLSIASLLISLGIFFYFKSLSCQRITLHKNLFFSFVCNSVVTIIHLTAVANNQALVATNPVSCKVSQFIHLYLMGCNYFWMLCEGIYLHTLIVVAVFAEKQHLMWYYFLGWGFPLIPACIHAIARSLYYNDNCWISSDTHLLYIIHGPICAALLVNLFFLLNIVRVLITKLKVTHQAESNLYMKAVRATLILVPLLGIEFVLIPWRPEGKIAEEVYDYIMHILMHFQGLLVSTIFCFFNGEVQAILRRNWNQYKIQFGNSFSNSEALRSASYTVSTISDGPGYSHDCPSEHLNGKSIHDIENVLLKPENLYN
Chain of hAM1 receptor (O60895 43-175 partner): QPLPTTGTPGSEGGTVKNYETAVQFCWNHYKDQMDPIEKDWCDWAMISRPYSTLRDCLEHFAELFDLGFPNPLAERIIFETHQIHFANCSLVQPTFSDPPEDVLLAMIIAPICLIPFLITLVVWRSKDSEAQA

In series [3] the target is T1, hAMY3 receptor (Homo sapiens, UniProt O60896+P30988).
T1 sequence (P30988 25-474): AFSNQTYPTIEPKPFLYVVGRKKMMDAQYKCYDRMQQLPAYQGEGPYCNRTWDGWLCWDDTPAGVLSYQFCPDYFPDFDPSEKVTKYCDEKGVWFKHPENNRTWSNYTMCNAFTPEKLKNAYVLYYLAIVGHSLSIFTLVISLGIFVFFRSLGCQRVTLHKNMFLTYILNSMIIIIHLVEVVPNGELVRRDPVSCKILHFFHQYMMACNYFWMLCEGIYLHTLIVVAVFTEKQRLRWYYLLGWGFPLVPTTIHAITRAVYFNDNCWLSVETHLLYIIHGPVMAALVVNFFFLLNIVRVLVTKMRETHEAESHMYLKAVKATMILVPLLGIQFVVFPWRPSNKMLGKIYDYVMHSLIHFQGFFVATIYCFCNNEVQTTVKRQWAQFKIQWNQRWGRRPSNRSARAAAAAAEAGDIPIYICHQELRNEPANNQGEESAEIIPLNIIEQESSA
T1 sequence (O60896 24-148 partner): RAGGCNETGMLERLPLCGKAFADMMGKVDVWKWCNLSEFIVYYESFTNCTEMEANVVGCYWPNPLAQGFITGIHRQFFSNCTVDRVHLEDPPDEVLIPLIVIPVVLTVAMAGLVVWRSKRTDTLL
The series is described as follows: cAMP assay for in vitro receptor activation, hAMY3-R. Type of series: cell-based. As to conditions: cAMP assay, hAMY3 receptor; read-out: hAMY3R EC50. The procedure, abridged:
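Stable hAMY3 cells; DPBS + 0.05% casein + 0.5 mM IBMX; graded compound doses, 30 min, RT; cAMP via HTRF Gs kit, TR-FRET read at 1 h.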

Bridge positions count the residues as written; N and C are the ends. Square brackets hold non-standard residues; d marks the D form. Peptide text beside a SMILES is read from it. Hyp = O=C(O)[C@@H]1C[C@@H](O)CN1

A word on the EC50: it is the midpoint of the concentration-response curve.

Take `CC[C@H](C)[C@H](NC(=O)[C@H](CCC(N)=O)NC(=O)[C@H](CC(=O)O)NC(=O)[C@H](C)NC(=O)[C@H](CC(C)C)NC(=O)[C@H](Cc1c[nH]c2ccccc12)NC(=O)[C@H](C)NC(=O)[C@@H](NC(=O)[C@@H](NC(=O)[C@@H]1CSSC[C@H](NC(=O)[C@@H](N)CCCCN)C(=O)N[C@@H](CC(N)=O)C(=O)N[C@@H]([C@@H](C)O)C(=O)N[C@@H](CO)C(=O)N[C@@H]([C@@H](C)O)C(=O)N1)[C@@H](C)O)C(C)C)C(=O)N[C@H](C(=O)N[C@@H](CCC(N)=O)C(=O)N[C@@H](Cc1ccccc1)C(=O)N[C@@H](CO)C(=O)N[C@@H](CC(=O)O)C(=O)N[C@@H](CCCCN)C(=O)N[C@@H](CC(=O)O)C(=O)N[C@@H](CCCCN)C(=O)N[C@@H](C)C(=O)N[C@@H](CC(N)=O)C(=O)N[C@H](C(=O)N[C@@H](CO)C(=O)N1CCC[C@H]1C(=O)N1CCC[C@H]1C(=O)N[C@H](C(=O)N[C@@H](CCC(=O)O)C(=O)N[C@H](C(=O)NCC(=O)N1CCC[C@H]1C(=O)N[C@@H](CC(N)=O)C(=O)N[C@@H](CO)C(=O)N1C[C@H](O)C[C@H]1C(N)=O)C(C)C)[C@@H](C)O)C(C)C)[C@@H](C)O` [compound 310] (H-KCNTSTCTVAWLADQITQFSDKDKANVSPPTEVGPNS[Hyp]-NH2; disulfide 2-7): the “Max ThT signal (%)” value in series [1] stood at 3.500%. Moreover, the EC50 in series [2] was more than 5000 nM; in series [3] it was 0.003 nM.
For `CC[C@H](C)[C@H](NC(=O)[C@H](CCC(N)=O)NC(=O)[C@H](Cc1c[nH]cn1)NC(=O)[C@H](C)NC(=O)[C@H](CC(C)C)NC(=O)[C@H](Cc1c[nH]c2ccccc12)NC(=O)[C@H](CCC(N)=O)NC(=O)[C@@H](NC(=O)[C@@H](NC(=O)[C@@H]1CSSC[C@H](NC(=O)[C@@H](N)CCCCN)C(=O)N[C@@H](CC(N)=O)C(=O)N[C@@H]([C@@H](C)O)C(=O)N[C@@H](C)C(=O)N[C@@H]([C@@H](C)O)C(=O)N1)[C@@H](C)O)C(C)C)C(=O)N[C@@H](Cc1ccc(O)cc1)C(=O)N[C@@H](CCC(N)=O)C(=O)N[C@@H](Cc1ccccc1)C(=O)N[C@H](C(=O)N[C@@H](CC(=O)O)C(=O)N[C@@H](CCCCN)C(=O)N[C@@H](CC(=O)O)C(=O)N[C@@H](CCCCN)C(=O)N[C@@H](CC(=O)O)C(=O)N[C@@H](CC(N)=O)C(=O)N[C@H](C(=O)N[C@@H](C)C(=O)N1CCC[C@H]1C(=O)N[C@@H](CCCNC(=N)N)C(=O)N[C@H](C(=O)N[C@@H](CCCCN)C(=O)N[C@H](C(=O)NCC(=O)N[C@@H](CO)C(=O)N[C@@H](CC(N)=O)C(=O)NCC(=O)N1C[C@H](O)C[C@H]1C(N)=O)C(C)C)[C@@H](C)O)C(C)C)[C@@H](C)O` [compound 312] (H-KCNTATCTVQWLAHQIYQFTDKDKDNVAPRTKVGSNG[Hyp]-NH2; disulfide 2-7; N-terminus assumed), in that order: 17.000%, more than 5000 nM and 0.012 nM.

The values above are taken from patent US12139520B2 (priority 2020, dated 2024).
